From the RepoRT retention time repository

Test: RP, Waters ACQUITY Premier BEH C18, 100 × 2.1 mm, 1.7 µm, 40 °C, 0.3 to 0.4 mL/min, estimated dead time 0.73 min; A: water + 0.1% formic acid; B: acetonitrile + 0.1% formic acid; gradient (min/%B) 0/0.5 0.1/0.5 10/80 10.1/99.5 12/0.5 12.1/0.5 14.5/0.5
Details: stereoisomer not certain

| LC retention time [min] | SMILES |
| --- | --- |
| 3.96 | CC(O)CCCC(=O)O (stereo not given) [5-HYDROXYHEXANOIC ACID] |
| 4.41 | O=C(O)Cc1c[nH]c2ccc(O)cc12 [5-HYDROXYINDOLEACETATE] |
| 3.46 | NC(Cc1c[nH]c2ccc(O)cc12)C(=O)O (stereo not given) [5-HYDROXYTRYPTOPHAN] |
| 5.46 | COc1ccc(O)c(C(=O)O)c1 [5-METHOXYSALICYLIC ACID] |
| 2.36 | Cc1cn(C2OC(CO)C(O)C2O)c(=O)nc1N (stereo not given) [5-METHYLCYTIDINE] |
| 0.94 | Cc1cnc(=O)[nH]c1N [5-METHYLCYTOSINE] |
| 7.21 | O=C(O)CCCCc1ccccc1 [5-PHENYLVALERIC ACID] |
| 4.9 | O=C1CCCCO1 [5-VALEROLACTONE] |
| 4.46 | O=C(O)CCCCCC(=O)O [6-CARBOXYHEXANOATE] |
| 1.34 | O=C1CCCC(C(=O)O)N1 (stereo not given) [6-OXOPIPERIDINE-2-CARBOXYLIC ACID] |
| 7.04 | CC1CCC2(C(=O)O)CCC3(C)C(=CCC4C5(C)CC(O)C(O)C(C)(CO)C5C(O)CC43C)C2C1C (stereo not drawn) [6BETA-HYDROXYASIATIC ACID] |
| 4.96 | CC(O)CCCCCC(=O)O (stereo not given) [7-HYDROXYOCTANOIC ACID] |
| 6.88 | CC(CCC(=O)O)C1CCC2C3C(=O)CC4CC(O)CCC4(C)C3CC(O)C12C (stereo not given) [7-KETODEOXYCHOLATE] |
| 1.2 | Cn1cnc2[nH]c(=O)[nH]c(=O)c21 [7-METHYLXANTHINE] |
| 7.5 | CCCCCC(O)C(O)CC=CCCCCCCCC(=O)O (stereo not given) [12,13-DIHOME] |
| 8.29 | CCCCCCC(O)CCCCCCCCCCC(=O)O (stereo not given) [12-HYDROXYSTEARIC ACID] |
| 4.47 | O=C(OC1Cc2c(O)cc(O)cc2OC1c1ccc(O)c(O)c1)c1cc(O)c(O)c(O)c1 (stereo not given) [(?)-EPICATECHIN GALLATE] |
| 7.09 | CCCCCCC[C@@H](O)CC(=O)O [(R)-3-HYDROXYDECANOIC ACID] |
| 7.48 | CC1(C)C=Cc2c(ccc3c2OCC(c2ccc(O)cc2O)C3)O1 [(R)-GLABRIDIN] |
| 6.93 | O=C(O)CCCCC1CCSS1 [(R)-LIPOIC ACID] |
| 3.5 | CC(=O)C(C)O (stereo not given) [ACETOIN] |
| 0.961 | CC(=O)OCC[N+](C)(C)C [ACETYLCHOLINE] |
| 4.38 | CC1OC(OC2C(O)C(OCCc3ccc(O)c(O)c3)OC(CO)C2OC(=O)C=Cc2ccc(O)c(O)c2)C(O)C(O)C1O (stereo not given) [ACTEOSIDE] |
| 1.3 | Nc1ncnc2nc[nH]c12 [ADENINE] |
| 2.8 | Nc1ncnc2c1ncn2C1OC(CO)C2OP(=O)(O)OC21 (stereo not given) [ADENOSINE 2',3'-CYCLIC PHOSPHATE] |
| 1.11 | Nc1ncnc2c1ncn2C1OC(COP(=O)(O)O)C(OP(=O)(O)O)C1O (stereo not given) [ADENOSINE 3',5'-DIPHOSPHATE] |
| 0.954 | Nc1ncnc2c1ncn2C1OC(COP(=O)([O-])OP(=O)([O-])OCC2OC(O)C(O)C2O)C(O)C1O (stereo not given) [ADENOSINE DIPHOSPHATE RIBOSE] |
| 1.22 | Nc1ncnc2c1ncn2C1OC(COP(=O)(O)OS(=O)(=O)O)C(O)C1O (stereo not given) [ADENOSINE PHOSPHOSULFATE] |
| 1.35 | Nc1ncnc2c1ncn2C1OC(COP(=O)(O)O)C(O)C1O (stereo not given) [ADENOSINE-MONOPHOSPHATE] |

| SMILES | LC retention time [min] |
| --- | --- |
| COc1ccc2[nH]cc(CCN)c2c1 [5-METHOXYTRYPTAMINE] | 3.73 |
| NCCc1cc(O)c(O)cc1O [6-HYDROXYDOPAMINE] | 1.31 |
| O=C(O)CCCCCCCO [8-HYDROXYOCTANOATE] | 5.04 |
| O=C(O)CCCCCCCCCO [10-HYDROXYDECANOATE] | 6.11 |
| O=C(O)CCCCCCCCCCCCCCCO [16-HYDROXY HEXADECANOIC ACID] | 7.82 |
| Cc1cc2c(C(C)C)c(O)c(O)c(C=O)c2c(O)c1-c1c(C)cc2c(C(C)C)c(O)c(O)c(C=O)c2c1O [(-)-GOSSYPOL] | 8.49 |
